The values below come from US11168179B2, “Macromolecular transition metal complexes for treatment of cancer and process for their preparation” (FACULDADE DE CIÉNCIAS DA UNIVERSIDADE DE LISBOA, priority 2014, dated 2021).

Where two headings read alike, the source gives them in different places.

For test [1], the system named is A2780 ovarian carcinoma cells. The test can be described thus: MTT cell viability assay, A2780. The class given is cell-based, human. Particulars: 72 h incubation, read-out: IC50 after a 72 h incubation, A2780. As to the method: (§1) The cultures of human breast (MDA-MB-231; ATCC) and ovarian (A2780, ATCC) carcinoma cell lines, were carried out in DMEM (Gibco) medium containing GlutaMax I (MDA-MB-231) or RPMI (A2780) and were completed with 10% FBS and 1% penicillin-streptomycin and kept at 37° C. in a humidified atmosphere containing 5% de CO2.
(§2) The cell culture was made in flasks containing the medium appropriate to cell proliferation and allowing cell adhesion.
(§3) Upon reaching the required confluence, the cells were harvested through addition of a 0.05% trypsin-EDTA solution (Gibco®). […] For this, the cells were seeded in 200 μl of complete cell medium in 96-well plates. Cell density was 2×10^4 viable cells (MDA-MB-231 and A2780) per well.
(§4) Cells were left to adhere for 24 h, followed by the addition of various dilutions in medium (200 μl) of the test compound. The test compound was first solubilized in DMSO and then in the cell medium and added to the cells at concentrations 1-100 μM. The final DMSO concentrations in the medium were lower than 0.5%. After 24 h and 72 h incubation, 37° C./5% CO2, the medium was substituted by 200 μl of the MTT solution (0.5 mg/ml in phosphate buffer—PBS). After 3-4 h incubation, the MTT solution was removed and the formazan crystals formed by the viable cells were dissolved in DMSO (200 μl). Cell viability was assessed measuring the absorbance at 570 nm, using a plate spectrophotometer.
(§5) The cytotoxicity of the test compound was quantified calculating the drug concentration that inhibits the growth of 50% of cells (IC50) (GraphPad Prism software). The assessment was carried out with at least two independent experiments, each comprising six replicates per concentration. Dose-response curves of cell viability, after a 72 h incubation, are represented in the graphs of the FIGS. 4a and 4b.
Upon reaching the required confluence, the cells were harvested through addition of a 0.05% trypsin-EDTA solution (Gibco®). […] For this, the cells were seeded in 200 μl of complete cell medium in 96-well plates. […]

For test [2], the system named is MCF-7 breast adenocarcinoma cells. The test can be described thus: MTT cell viability assay, MCF-7. The test is classed as cell-based, human. The method, then: as §2
For this, the cells were seeded in 200 μl of complete cell medium in 96-well plates.
as §4, with “[…] The cytotoxicity of the test compound” for “Cell viability”, “quantified calculating” for “assessed measuring”, “drug concentration that inhibits the growth of 50% of cells (IC50) (GraphPad Prism software). The assessment was carried out with” for “absorbance”, “least two independent experiments, each comprising six replicates per concentration.” for “570 nm, using a plate spectrophotometer.”
Upon reaching the required confluence, the cells were harvested through addition of a 0.05% trypsin-EDTA solution (Gibco®). […] For this, the cells were seeded in 200 μl of complete cell medium in 96-well plates. […] Cells were left to adhere for 24 h, followed by the addition of various dilutions in medium (200 μl) of the test compound. The test compound was first solubilized in DMSO and then in the cell medium and added to the cells at concentrations 1-100 μM. The final DMSO concentrations in the medium were lower than 0.5%. […] The cytotoxicity of the test compound was quantified calculating the drug concentration that inhibits the growth of 50% of cells (IC50) (GraphPad Prism software). The assessment was carried out with at least two independent experiments, each comprising six replicates per concentration.

The subject of test [3] is MDA-MB-231 human breast carcinoma cells. Nature of the test: MTT cell viability assay, MDA-MB-231. The test is classed as cell-based. Conditions: 72 h incubation, read-out: IC50 after a 72 h incubation, MDA-MB-231. The method, then: as §1, §2, §3, §4, §5
The test system of the next test is glioma U87 cells. Conditions: literature value (J. Biol. Chem. 1997, 272:14041-14044); read-out: value found in the literature for the glioma line; cited from earlier work.
In test [4] the test system is MCF-7 cancer cell line. Conditions: immunofluorescence, versus control cells. An excerpt: In this immunofluorescence assay, Alexa Fluor 488® phalloidin, which is a high-affinity filamentous actin (F-actin) probe conjugated to the green-fluorescent Alexa Fluor® 488 dye was used. In order to obtain nuclear staining DAPI (blue) was used (FIG. 9).
The test system of test [5] is MCF-7 cancer cell line. Conditions: 48 h of incubation, 10 μM. An excerpt:
This assay is widely used to determine if cells are viable, apoptotic, or necrotic through differences in plasma membrane integrity and permeability. All in all, Annexin V/PI is a commonly used approach for studying cell death (Rieger et al. 2011).
Annexin V a marker of early apoptosis. […] Cisplatin was used as a positive control since it is known to induce apoptosis.

Test [6] deals with human cells of MCF-7 breast cancer. Particulars: 24 h incubation, versus untreated control cells (100%). An excerpt:
The intrinsic pathway is triggered by intracellular or extracellular stress. The signals that are transduced in response to these stimuli converge mainly to the mitochondria. This organelle integrates the cell death stimuli, inducing mitochondrial permeabilization and consequent release of pro-apoptotic molecules present therein.

Where [7] appears, read: 72 h incubation, read-out: IC50 after a 72 h incubation, MCF-7.
Where [8] appears, read: 24 h incubation, read-out: IC50 after a 24 h incubation, MCF-7.

Regarding `N.N.[Cl][Pt][Cl]` [Cisplatin, reference compound], the IC50 in test [1] was 2 ± 0.1 µM; in test [2] (setting [7]), 28 ± 6 µM; in test [3], 39 ± 5 µM; with glioma U87 cells, 130 ± 53 µM.

As for “(2,2′-bipyridine-4,4′-diylbis{methylene}bis(2-{2-(2-hydroxypropanoyloxy)poly(lactic acid)-yl}propanoate)-k^2N,N′)(triphenylphosphane)(η^5-cyclopentadienyl)ruthenium(II) triflate [Compound 5]”, the IC50 was determined as 3.4 ± 1.3 µM in test [1], 4.25 ± 1.15 µM in test [2] (setting [8]), 4.09 ± 1.97 µM in test [2] (setting [7]) and 2.7 ± 0.55 µM in test [3]. Moreover, the “effect on cytoskeleton (F-actin filaments)” value in the test on MCF-7 cancer cell line [4] is given as “cytoskeleton loses its organization”. Also, the “percentage of Annexin V stained cells in comparison to the control” value in the test with MCF-7 cancer cell line [5] is recorded as “increase”. Also, in the test with MCF-7 cancer cell line [5], the “type of cell death induced” value is “apoptosis”. Besides, the “expression of catalase and SMAC diablo proteins” value in test [6] is “decrease”.

Regarding “[(1,1′-{1,1′-(1,1′-{2,2′-Bipyridine-4,4′-diylbis(methylene)}bis(oxy)bis(1-oxopropane-2,1-diyl))bis(poly(lactic acid)-yl))}bis(oxy)bis(1-oxopropane-2,1-diyl)di(2S,3S,4S,5R,6R)-3,4,5,6-tetrahydroxyoxane-2-carboxylate)-k^2N,N′](triphenylphosphane)(η^5-cyclopentadienyl)-ruthenium(II) triflate [Compound 6]”, the IC50 was found to be 2.2 ± 0.85 µM in test [1], 5 ± 1.65 µM in test [2] (setting [8]), 4.62 ± 1.15 µM in test [2] (setting [7]) and 5.96 ± 3.25 µM in test [3]. Moreover, the “effect on cytoskeleton (F-actin filaments)” value in the test on MCF-7 cancer cell line [4] is “cytoskeleton loses its organization”. Further, the “percentage of Annexin V stained cells in comparison to the control” value in the test with MCF-7 cancer cell line [5] is reported as “increase”. For the same molecule, in the test on MCF-7 cancer cell line [5], the “type of cell death induced” value was “apoptosis”. The “expression of catalase and SMAC diablo proteins” value in test [6] was “decrease”.
